Measured values published in PubChem BioAssay AID1418 (Emory University Molecular Libraries Screening Center, 2008).
Several values for one entry are separate records, joined by “and”; a condition that tells them apart may be missing. Equal values may be shown once. Activity calls are given as the source filed them. No rule for the calls is given here.

Each compound was assayed against Induced myeloid leukemia cell differentiation protein Mcl-1 (Homo sapiens) (UniProt Q07820) (assay: blockers of Bid binding to Mcl-1 – biochemical, TR-FRET, dose response (AID 1418)). Conditions: Mcl-1/Bid peptide binding, TR-FRET (europium/Dy647), 2 hr.
Chain of Induced myeloid leukemia cell differentiation protein Mcl-1 (Homo sapiens) (Q07820 whole entry, looked up): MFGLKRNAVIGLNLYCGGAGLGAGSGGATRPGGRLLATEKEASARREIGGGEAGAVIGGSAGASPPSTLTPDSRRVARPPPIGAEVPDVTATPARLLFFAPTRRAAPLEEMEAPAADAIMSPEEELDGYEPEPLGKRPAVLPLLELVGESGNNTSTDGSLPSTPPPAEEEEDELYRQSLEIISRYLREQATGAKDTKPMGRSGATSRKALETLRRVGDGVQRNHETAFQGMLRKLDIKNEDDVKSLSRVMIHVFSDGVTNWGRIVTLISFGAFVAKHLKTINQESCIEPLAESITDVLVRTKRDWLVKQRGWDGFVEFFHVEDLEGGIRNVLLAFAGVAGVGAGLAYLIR
In the case of CN(CCO)S(=O)(=O)c1ccc2c(c1)C(=NO)c1cc(S(=O)(=O)N(C)CCO)ccc1-2, the IC50 is reported as > 54 µM (inactive). With CSc1nc(C)cc(OCC(=O)n2nc(C)cc2C)n1 the IC50 was > 54 µM (inactive). COc1ccc(NC(=O)CN2C(=O)/C(=C3\SC(=S)N(C4CCS(=O)(=O)C4)C3=O)c3ccccc32)cc1 (configuration not stated) gave an IC50 of 0.72 µM. With Fc1cc2nc(-c3ccncc3)[nH]c2cc1F the IC50 was > 54 µM (inactive). In the case of CCOc1cc(/C=C2\C(=O)N(c3nc(-c4ccc(Br)cc4)cs3)N=C2c2ccccc2)ccc1O, the IC50 is reported as 0.75 µM. For Cc1cccc(N2CCN(C(=O)Cc3ccc(-n4c(=O)[nH]c5ccsc5c4=O)cc3)CC2C)c1 (configuration not stated), the IC50 was > 54 µM (inactive). With CN(CCN(C)C(C)(C)C)C(=O)C(c1ccccc1)c1ccccc1 the IC50 was > 54 µM (inactive). Compound Cc1cc2nc(-c3ccc(NC(=O)C(C)C)cc3)oc2cc1C has an IC50 of 3.02 µM. With CCOC(=O)c1nc(C)sc1-c1ccnn1S(=O)(=O)c1ccc(C)cc1 the IC50 was > 54 µM (inactive). With CC(=O)Oc1ccc(Cl)cc1/C=C/c1ccc2ccccc2n1 the IC50 was > 54 µM (inactive). O=C(O)c1ccccc1-c1ccc(/C=c2\sc3nc4cc(Br)cnc4n3c2=O)o1 showed an IC50 of 18.5 µM. Compound COc1ccc(CN2C(=O)c3cccnc3C2Nc2cc(Cl)c(OC)cc2OC)cc1 (configuration not stated) has an IC50 of 0.84 µM. In the case of O=C(O)CCCC(=O)Nc1cccc(C(=O)Nc2ccccc2C(=O)O)c1, the IC50 is reported as > 54 µM (inactive). O=C(/C=C\Nc1ccc(S(=O)(=O)Nc2ncccn2)cc1)c1cccc2ccccc12 was tested, and the IC50 was > 54 µM (inactive). COc1ccc(OC)c(Nc2nc(-c3cccc([N+](=O)[O-])c3)nc3ccccc23)c1 was tested, and the IC50 was > 54 µM (inactive). COc1ccc2[nH]c3c(c2c1)CCn1c-3nc2sc(C(=O)Nc3ccccc3)c(C)c2c1=O showed an IC50 of 1.89 µM. In the case of COc1cccc(-c2csc(N3CCN(C(=S)Nc4cccc(Cl)c4)CC3)n2)c1, the IC50 is reported as > 54 µM (inactive). COc1cccc(CNC(=O)C2CCN(S(=O)(=O)N3CCCCC3)CC2)c1 was tested, and the IC50 was > 54 µM (inactive). CCCCN1C(=O)/C(=C/C=C/c2ccco2)C(=O)NC1=S gave an IC50 of 8.35 µM. Cc1nc(COC(=O)c2cc(O)c3ccccc3c2O)cs1 gave an IC50 of 0.9 µM. CSc1nc(SCC(=O)O)c2sc3nc(-c4ccccc4)c4c(c3c2n1)CCC4 showed an IC50 of 1.53 µM. COc1ccc(CN2C(=O)c3cccnc3C2O)cc1 (configuration not stated) gave an IC50 of 0.71 µM. In the case of O=C(N/N=C/c1ccc([N+](=O)[O-])o1)c1cc2c(ccc3ccccc32)o1, the IC50 is reported as 1.71 µM. For CC1CN(C(=O)c2cccc(C(=O)N3CC(C)OC(C)C3)c2)CC(C)O1 (configuration not stated), the IC50 was > 54 µM (inactive). Work on Cc1ccc2nc(NC(=O)c3cccc(-c4cc5ccccc5oc4=O)c3)sc2c1 yielded an IC50 of 0.99 µM. With Cc1ccc(S(=O)(=O)CCNC(=O)Cc2ccccc2)cc1 the IC50 was > 54 µM (inactive). For O=C(NC(=S)Nc1ccc(S(=O)(=O)N2CCCCC2)cc1)c1cccs1, the IC50 was > 54 µM (inactive). Compound O=C(NCc1ccco1)c1cccn2c(=O)c3cc4ccccc4cc3nc12 has an IC50 of 0.52 µM. In the case of CS(=O)(=O)NCc1ccc(C(=O)NCCOc2ccccc2)cc1, the IC50 is reported as > 54 µM (inactive). In the case of O=[N+]([O-])c1ccc(-c2nc3ccc([N+](=O)[O-])cc3[nH]2)cc1, the IC50 is reported as 13 µM. For CN1CCN(Cc2cccc(Oc3ccc(Cl)cc3)c2)CC1, the IC50 was > 54 µM (inactive). With CCc1cc(C(c2ccc(F)cc2)N2CCOCC2)c(NC(=O)c2ccccc2)s1 (configuration not stated) the IC50 was > 54 µM (inactive). Work on Cc1ccc(-n2cccc2/C=C2/C(=N)N3C(=NC2=O)SN=C3S(C)(=O)=O)cc1Cl yielded an IC50 of 10.9 µM. In the case of O=[N+]([O-])c1cc(Cl)cc(/C=N/NC(=S)Nc2ccc(S(=O)(=O)N3CCOCC3)cc2)c1O, the IC50 is reported as > 54 µM (inactive). C[C@@H](C(=O)Nc1nc2ccc(F)cc2s1)N1C(=O)C2CC=CCC2C1=O (some centres not stated) was tested, and the IC50 was > 54 µM (inactive). COc1ccc(C2SCC(=O)N2CCCN(C)C)cc1 (configuration not stated) was tested, and the IC50 was > 54 µM (inactive). In the case of Cc1nnc(Sc2cc(C(=O)NC3CC3)c3ccccc3n2)s1, the IC50 is reported as > 54 µM (inactive). CC1CCCN(C(=S)Nc2ccc3nc4n(c(=O)c3c2)CCCCC4)C1 (configuration not stated) was tested, and the IC50 was > 54 µM (inactive). Cc1ccc(-c2nn(C)c(=O)c3ccccc23)cc1CNC(=O)Cn1nc(-c2ccccc2)c2ccccc2c1=O was tested, and the IC50 was 0.56 µM. CCOc1c(C(N)=O)c(-c2ccccc2)c2c(=O)[nH]c3ccccc3n12 was tested, and the IC50 was > 54 µM (inactive). For Cc1ccc(CNC(=O)c2ccc3nc4[nH]c5ccccc5c4nc3c2)cc1, the IC50 was 6.82 µM. In the case of Cc1ccc(NC(=O)c2ccc3ncsc3c2)cc1S(=O)(=O)N(C)C, the IC50 is reported as “inactive”. For NCCCC[C@H](NC(=O)C1CCNCC1)c1nnc(CN)o1, the IC50 was > 54 µM (inactive). In the case of O=C1C(=Cc2cccn2-c2ccc(O)cc2)C(=O)c2ccccc21, the IC50 is reported as 2.53 µM. C=CCc1ccc(OCCOCCOc2cccc3ccc(C)nc23)c(OC)c1 was tested, and the IC50 was > 54 µM (inactive). For COc1cccc(Nc2nc(NCC3CCCO3)c3ccccc3n2)c1 (configuration not stated), the IC50 was > 54 µM (inactive). With CCCCSc1cc(C)nc(N)n1 the IC50 was > 54 µM (inactive). For CCCN1CCC(NC(=S)Nc2ccc(C(=O)OCC)cc2)CC1, the IC50 was > 54 µM (inactive). COc1cc(/C=C2\SC(=O)N(c3ccc(Cl)cc3)C2=O)cc([N+](=O)[O-])c1O showed an IC50 of 1.58 µM. For CCc1cccc(CC)c1NC(=S)N1CCn2cccc2C1c1cccnc1 (configuration not stated), the IC50 was > 54 µM (inactive). For CCOc1ccccc1Nc1nc(-c2sc(NC(=O)c3ccc([N+](=O)[O-])cc3)nc2C)cs1, the IC50 was 1.37 µM. O=C(Nc1ccc2sccc2c1)c1ccc(Cl)s1 was tested, and the IC50 was > 54 µM (inactive). In the case of Nc1nc(Nc2cccc(F)c2)nc(N2CCOCC2)c1[N+](=O)[O-], the IC50 is reported as > 54 µM (inactive). CCOC(=O)CSc1nc(C2CC2)cc(-c2ccc(Cl)cc2)c1C#N was tested, and the IC50 was > 54 µM (inactive). With CCOC(=O)c1sc(N2N=C(C)C(N=Nc3cccc(C)c3)C2=O)nc1C (configuration not stated) the IC50 was 1.42 µM. O=C(CSc1nnc2scc(-c3ccccc3)n12)N1CCN(Cc2ccccc2)CC1 was tested, and the IC50 was > 54 µM (inactive). COC(CNC(=O)c1ccc2nc(-c3cccs3)c(-c3cccs3)nc2c1)OC was tested, and the IC50 was > 54 µM (inactive). In the case of O=C1NC(CCc2ccccc2)C(=O)N1Cc1ccccc1Cl (configuration not stated), the IC50 is reported as > 54 µM (inactive). Cc1csc2ncnc(N3CCN(C(=S)Nc4ccc(F)cc4F)CC3)c12 was tested, and the IC50 was > 54 µM (inactive). With N#Cc1cc(-c2ccccc2)nc(Oc2ccccc2)n1 the IC50 was > 54 µM (inactive). Compound COc1cc2c(cc1OC)-c1cc(NCc3ccccn3)nc(=O)n1CC2 has an IC50 of 0.55 µM. With O=C1OC(c2ccccc2)=C/C1=C/N1CCCCC1 the IC50 was > 54 µM (inactive). CC(C(=O)O)n1nc2ccccc2n1 (configuration not stated) was tested, and the IC50 was > 54 µM (inactive). For COCCN1Cc2cccc(C(=O)Nc3cccc(C)c3C)c2C1=O, the IC50 was > 54 µM (inactive). In the case of Cc1cccc(N=C2NC(=O)/C(=C/C=C/c3ccco3)S2)c1C, the IC50 is reported as > 54 µM (inactive). CC(C)[n+]1ccn(C2=C([O-])c3ccccc3C(=O)/C2=N\S(=O)(=O)c2ccccc2)c1 was tested, and the IC50 was > 54 µM (inactive). COc1ccc(CN2C(=O)/C(=C/c3ccc(-c4ccc(Cl)c(C(=O)O)c4)o3)SC2=S)cc1 showed an IC50 of 1.65 µM. With COc1cccc(CNC(=O)CSCc2cnn(-c3ccccc3)c2-n2cccc2)c1OC the IC50 was > 54 µM (inactive). COc1cccc(CNc2nc3ccc(C)cc3n3cnnc23)c1 was tested, and the IC50 was > 54 µM (inactive). In the case of N#Cc1cccc(NC(=O)CSc2ccc3c4c(cccc24)C(=O)c2ccccc2-3)c1, the IC50 is reported as 2.65 µM. O=[N+]([O-])c1cc(Br)c(O)c(/C=N/Nc2nnnn2-c2cccc3ccccc23)c1 showed an IC50 of 13.9 µM. With COc1ccc2nc(NC(=O)c3ccc(-c4cccc([N+](=O)[O-])c4)o3)sc2c1 the IC50 was 0.81 µM. With Cc1ccc(S(=O)(=O)N/N=C/c2cnn(C)c2C)cc1 the IC50 was > 54 µM (inactive). O=C1c2ccccc2C(=O)C1Cc1cccc2ccccc12 was tested, and the IC50 was 8.94 µM. Cc1ccc(C)c(NC(=O)C2CCCN2/C=C/C(=O)C(F)(F)F)c1 (configuration not stated) was tested, and the IC50 was > 54 µM (inactive). With Cc1c(N=Nc2c(-c3ccc([N+](=O)[O-])cc3)[nH]n(C(N)=S)c2=O)cccc1[N+](=O)[O-] the IC50 was 2.92 µM. With COc1ccc(Nc2ncc(C(=O)N3CCN(c4ccc(F)cc4)CC3)c3ccccc23)cc1 the IC50 was > 54 µM (inactive). In the case of O=C(COc1cccnc1[N+](=O)[O-])c1ccc(Cl)s1, the IC50 is reported as > 54 µM (inactive). For COC(=O)c1c(NC(=O)c2cnccn2)sc2c1CCC2, the IC50 was > 54 µM (inactive). With C=CCNCCCOc1ccc(Cl)cc1Br the IC50 was > 54 µM (inactive). O=C(O)C[C@@H]1C(=O)O[C@@H]2C(COC(=O)c3cc(O)c(O)c(O)c3)O[C@@H](OC(=O)c3cc(O)c(O)c(O)c3)[C@@H](OC(=O)c3cc(O)c(O)c4c3[C@H]1[C@H](O)C(=O)O4)[C@H]2OC(=O)c1cc(O)c(O)c(O)c1 (some centres not stated) gave an IC50 of 0.95 µM. For Clc1ccc2nc(CN3CCCc4ccccc43)cn2c1, the IC50 was > 54 µM (inactive). In the case of CCOC(=O)c1c(C)oc2c1c(C(c1ccncc1)N1CCOCC1)c(O)c1ccccc12 (configuration not stated), the IC50 is reported as 0.87 µM. O=C(CCN1C(=O)/C(=C/c2cccc(Br)c2)SC1=S)NNC(=O)c1cccnc1 showed an IC50 of 4.52 µM. For c1coc(-c2nc3c4c5c(sc4ncn3n2)CCCC5)c1, the IC50 was > 54 µM (inactive). FC(F)(F)c1ccncc1-c1nnnn1-c1ccc(Cl)cc1 was tested, and the IC50 was > 54 µM (inactive). In the case of COc1ccc2c(=O)c3c(=O)n(CCc4ccccc4)c(C(C)C)nc3oc2c1, the IC50 is reported as > 54 µM (inactive). Nc1cccc(C(=O)OCC(=O)Nc2cccc3c2C(=O)c2ccccc2C3=O)c1 was tested, and the IC50 was 2.38 µM. For O=[N+]([O-])c1ccc(NC(=S)NCCc2ccc(Cl)cc2)cc1, the IC50 was > 54 µM (inactive). In the case of Cc1cc2c(C(C)C)c(O)c(O)c(C=O)c2c(O)c1-c1c(C)cc2c(C(C)C)c(O)c(O)c(C=O)c2c1O, the IC50 is reported as 1.17 µM and 0.86 µM. With Cc1cccc(C(=O)Nc2ccnc(-c3cccnc3)n2)c1 the IC50 was > 54 µM (inactive). Cc1n[nH]c(C)c1S(=O)(=O)N1CCN(c2ccccn2)CC1 was tested, and the IC50 was > 54 µM (inactive). For CN(C)S(=O)(=O)c1cccc(N=c2scc(-c3ccc4c(c3)NC(=O)CO4)n2CC2CCCO2)c1 (configuration not stated), the IC50 was > 54 µM (inactive). For CC1=NN(c2ccccc2)C(=O)/C1=C\c1cn(-c2ccccc2)nc1C, the IC50 was > 54 µM (inactive). Work on CCOc1cc(C=C2C(=O)c3ccccc3C2=O)ccc1OCC(=O)Nc1ccc(C)cc1 yielded an IC50 of 1.2 µM. With O=C(Cc1sc(-c2ccccc2Cl)nc1-c1ccccc1)Nc1ccccc1 the IC50 was > 54 µM (inactive). For CC1(c2ccc(Cl)cc2Cl)OCC(Cn2ccnc2)O1 (configuration not stated), the IC50 was > 54 µM (inactive).
